Data on two compounds can be found in patent publication US20080255236A1, “Methods and Composition Comprising 2-[(3-Chlorophenyl)Amino] Phenylacetic Acid for Alzheimer's Disease” (Glycadia, Inc., priority 2007, published 2008).

The bioavailability is dose-corrected exposure relative to a reference, in per cent. Read a high bioavailability as much systemic uptake.

The test system of one data set is human hepatocytes. The data set can be described thus: Metabolic conversion after incubation with human hepatocytes (mass spectrometry). The format is in vitro ADME. The procedure: After incubation of 23CPPA with human hepatocytes, samples were analyzed using mass spectrometry to establish metabolic conversion of the compound.
The next data set has as its target COX1 (Homo sapiens, UniProt P23219). The following applies: background statement, no test described; cited from earlier work.
The next data set deals with T1, COX2 (Homo sapiens, UniProt P35354).
T1 sequence (P35354 18-604): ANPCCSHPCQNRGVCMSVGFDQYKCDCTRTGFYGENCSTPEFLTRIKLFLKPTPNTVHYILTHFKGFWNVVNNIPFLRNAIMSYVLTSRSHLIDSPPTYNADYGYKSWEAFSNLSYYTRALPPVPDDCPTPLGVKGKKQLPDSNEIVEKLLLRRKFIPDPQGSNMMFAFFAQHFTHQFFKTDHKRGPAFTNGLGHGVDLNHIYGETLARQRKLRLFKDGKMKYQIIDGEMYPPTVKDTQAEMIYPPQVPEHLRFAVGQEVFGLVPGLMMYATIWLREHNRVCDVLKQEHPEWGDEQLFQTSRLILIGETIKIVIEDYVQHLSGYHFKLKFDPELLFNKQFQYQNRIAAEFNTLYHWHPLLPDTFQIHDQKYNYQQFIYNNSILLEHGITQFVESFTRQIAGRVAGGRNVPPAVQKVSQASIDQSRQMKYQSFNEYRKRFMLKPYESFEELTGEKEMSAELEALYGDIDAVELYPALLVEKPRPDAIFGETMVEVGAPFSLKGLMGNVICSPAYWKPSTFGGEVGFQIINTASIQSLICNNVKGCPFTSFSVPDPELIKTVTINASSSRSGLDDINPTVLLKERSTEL
Conditions: background statement, no test described; cited from earlier work.

The nature of data set [1]: Bioavailability of 23CPPA in male rats (oral vs intravenous). The format is in vivo. The following applies: rat, single dose oral 30 mg/kg vs intravenous 3.0 mg/kg, plasma LC-MS-MS. The procedure: Male rats were given a single dose of 23CPPA by the oral route (30 mg/kg) or by the intravenous route (3.0 mg/kg). Timed samples of blood were collected before and after dosing, and plasma concentrations of the compound were determined with LC-MS-MS analysis.

A short description of data set [2]: Brain and plasma levels of 23CPPA following oral administration in rats (HPLC/MS/MS). Conditions: rat; for concentration at 1 h: 1 hour after dose; for concentration at 4 h: 4 hours after dose; for concentration at 6 h: 6 hours after dose. The format is in vivo. The procedure:
Rat hemi brains were obtained 1, 4 and 6 hours after administration by gavage of the sodium salt of 23CPPA at doses of 15 and 60 mg/kg and were mixed with two equivalents of water and homogenized. The resulting homogenate was extracted into acetonitrile containing internal standard and concentrations of the compound were analyzed by high pressure liquid chromatography/two stage mass spectrometry (HPLC/MS/MS). Plasma samples also were collected from the same rats at these time points for measurement of plasma concentrations of the compound.

Data set [3] deals with Mammalian cell cultures expressing human Amyloid Protein Precursor (APP). Put plainly: Production of Aβ40 and Aβ42 peptides in culture supernatants, enzyme-linked immunoassay. The format is cell-based. Conditions: sodium salt at 10, 50 and 100 micromolar, vs DMSO control. The procedure: FIG. 1 is a chart diagram representing an exemplary embodiment of 23CPPA lowering production of amyloidogenic Aβ42 peptide. Mammalian cell cultures expressing human Amyloid Protein Precursor (APP) were treated with the sodium salt of 23CPPA at concentrations of 10, 50 and 100 micromolar. The culture supernatants were analyzed by enzyme-linked immunoassay for the Aβ40 and Aβ42 peptides. Results were compared to control values obtained from cells treated with DMSO. […] Mammalian cell cultures expressing human Amyloid Protein Precursor (APP) were treated with the sodium salt of 23CPPA at concentrations of 10, 50 and 100 micromolar. The culture supernatants were analyzed by enzyme-linked immunoassay for the Aβ40 and Aβ42 peptides. Results were compared to control values obtained from cells treated with DMSO.

A further data set deals with diabetic rodents. Conditions: chronic administration, cited from earlier work.
Data set [4] can be described thus: Plasma levels of 23CPPA following oral administration in rats. Conditions: for AUC(0-t) / half-life: plasma, rat; for AUC(0-t) / Cmax / half-life: po; for AUC(0-t): read-out: AUC0-24; for Cmax: read-out: maximal concentration (Cmax). Type of data set: in vivo, rat. The method, then:
Concentrations of compound in rat plasma were measured at timed intervals after administration by gavage of 25 and 75 mg per kilogram of body weight of the sodium salt of 23CPPA. […] Plasma concentrations of the compound readily declined after reaching maximal concentration and the elimination half-life (T^1/2) was about 2 hours. The extent of systemic exposure of animals to 23CPPA, characterized by the area under the curve from 0 to 24 hours after administration (AUC0-24), increased with increasing dosage, was approximately dose proportional, and encompassed levels representing therapeutic ranges.

Data set [5] can be described thus: Plasma levels of 23CPPA after oral administration to humans. Type of data set: in vivo, human. The following applies: for AUC(0-t): read-out: AUC0-24. The method, then:
Plasma concentrations were measured at timed intervals after oral administration of a single dose of 50 to 1000 mg of the sodium salt of 23CPPA. […] The extent of systemic exposure of subjects to 23CPPA, characterized by the area under the curve from 0 to 24 hours after administration (AUC0-24), increased with increasing dosage from 50 to 1000 mg and was approximately dose proportional. The human pharmacokinetic findings closely resemble those in rats according to the human equivalent dose as shown in Example 2.

The conditions of data set [6]: cited from earlier work.
[7] abbreviates: blood, gavage 15 mg/kg sodium salt, read-out: Blood concentration.
The mark [8] stands for this setting: blood, gavage 60 mg/kg sodium salt, read-out: Blood concentration.
[9] abbreviates: brain, gavage 15 mg/kg sodium salt, read-out: Brain concentration.
Setting [10] is: brain, gavage 60 mg/kg sodium salt, read-out: Brain concentration.

Like-named read-outs stand apart in the source and are kept apart here.

Chain of COX1 (P23219 24-599): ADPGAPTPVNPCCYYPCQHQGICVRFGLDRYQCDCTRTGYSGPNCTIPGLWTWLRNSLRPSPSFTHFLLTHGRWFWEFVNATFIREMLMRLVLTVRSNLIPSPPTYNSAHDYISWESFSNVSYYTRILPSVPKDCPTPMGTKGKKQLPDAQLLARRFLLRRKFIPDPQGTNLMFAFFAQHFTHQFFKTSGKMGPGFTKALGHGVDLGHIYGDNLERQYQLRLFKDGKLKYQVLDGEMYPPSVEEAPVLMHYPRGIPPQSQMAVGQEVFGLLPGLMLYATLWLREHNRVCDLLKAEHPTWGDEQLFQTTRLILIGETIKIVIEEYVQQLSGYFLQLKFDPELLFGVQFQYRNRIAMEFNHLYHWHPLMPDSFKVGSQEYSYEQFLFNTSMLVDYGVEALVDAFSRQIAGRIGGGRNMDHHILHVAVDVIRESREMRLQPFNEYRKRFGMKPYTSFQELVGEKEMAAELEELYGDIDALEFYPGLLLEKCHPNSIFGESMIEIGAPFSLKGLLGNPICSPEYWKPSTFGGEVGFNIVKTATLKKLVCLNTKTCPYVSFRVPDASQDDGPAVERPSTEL

As for `O=C(O)Cc1ccccc1Nc1cccc(Cl)c1` [23CPPA, 2-[(3-chlorophenyl)amino]phenylacetic acid], the conversion products identified result in the data set on human hepatocytes (incubation with human hepatocytes, mass spectrometry) is “hydroxylation and loss of water products and glucuronide conjugates”. Further, the “conversion to COX-inhibitory compound” value with human hepatocytes (structures of conversion products from human hepatocytes) was “none of which had structures compatible with COX-inhibitory activity”. Also, the “inhibition of cyclooxygenase enzyme COX1” value on COX1 was “is not a pharmacologic inhibitor”. Besides, at COX2, the “inhibition of cyclooxygenase enzyme COX2” value is on record as “is not a pharmacologic inhibitor”. Moreover, the bioavailability in data set [1] is 85%. Besides, the concentration at 1 h in data set [2] (setting [7]) worked out at 27 µM; in data set [2] (setting [8]) it was 57 µM; in data set [2] (setting [9]), 76 µM; in data set [2] (setting [10]), 148 µM. The concentration at 4 h in data set [2] (setting [7]) turned out to be 4 µM; in [2] (setting [8]), 28 µM; in data set [2] (setting [9]), 12.4 µM; in data set [2] (setting [10]), 61 µM. In addition, the concentration at 6 h in data set [2] (setting [7]) was found to be 3 µM; in data set [2] (setting [8]), 22 µM; in [2] (setting [9]), 11.9 µM; in data set [2] (setting [10]) it was 45 µM. The “amount of Aβ40” value in [3] was “without proportionate change”. The “amount of Aβ42” value in data set [3] is “dose-dependent reduction”. The “total Aβ values” in data set [3] is “without proportionate change”. In the data set with diabetic rodents (persistent hyperglycemia), the “concentration of glycated albumin” value is “lowers the concentration of glycated albumin”. The “structural and functional abnormalities characteristic of diabetic kidney disease” value in the data set with diabetic rodents is “ameliorates the structural and functional abnormalities”. For the same compound, the AUC(0-t) in [4] (gavage 25 mg/kg body wt. sodium salt) worked out at 26600 ng·h/mL; in data set [4] (gavage 75 mg/kg body wt. sodium salt) it was 94000 ng·h/mL; in [5] (plasma, human, single oral dose 50 mg (0.7 mg/kg body wt)) it was 4480 ng·h/mL; in data set [5] (plasma, human, single oral dose 100 mg (1.3 mg/kg body wt)), 11000 ng·h/mL; in data set [5] (plasma, human, single oral dose 250 mg (3.0 mg/kg body wt)), 27300 ng·h/mL; in data set [5] (plasma, human, single oral dose 500 mg (6.0 mg/kg body wt)), 54000 ng·h/mL. In addition, the AUC(0-t) in data set [5] (plasma, human, single oral dose 750 mg (9.0 mg/kg body wt)) amounted to 66600 ng·h/mL; in [5] (plasma, human, single oral dose 1000 mg (12.3 mg/kg body wt)), 100000 ng·h/mL. The Cmax in [4] (rat plasma, gavage 25 mg/kg sodium salt) is 9500 ng/mL; in [4] (rat plasma, gavage 75 mg/kg sodium salt), 25000 ng/mL; in [5] (human plasma, single oral dose of 50 to 1000 mg sodium salt, read-out: maximal concentrations (Cmax)), 200 to 15600 ng/mL. The “Time of maximal concentration (Tmax)” value in [4] (rat plasma, gavage 25 and 75 mg/kg sodium salt) was “within one hour”. The half-life in data set [4] (25 mg/kg, gavage 25 mg/kg body wt. sodium salt, read-out: T1/2 (converted)) was 2.45 h; in data set [4] (75 mg/kg, rat plasma, gavage 25 and 75 mg/kg sodium salt, read-out: elimination half-life (T1/2) (converted)), about 2 h; in data set [4] (75 mg/kg, gavage 75 mg/kg body wt. sodium salt, read-out: T1/2 (converted)), 1.95 h; in data set [5] (plasma, human, single oral dose 50 mg (0.7 mg/kg body wt), read-out: T1/2 (converted)), 1.55 h; in data set [5] (plasma, human, single oral dose 100 mg (1.3 mg/kg body wt), read-out: T1/2 (converted)), 1.5 h; in data set [5] (plasma, human, single oral dose 250 mg (3.0 mg/kg body wt), read-out: T1/2 (converted)), 1.35 h. In addition, the half-life in data set [5] (plasma, human, single oral dose 500 mg (6.0 mg/kg body wt), read-out: T1/2 (converted)) was 1.5 h; in data set [5] (plasma, human, single oral dose 750 mg (9.0 mg/kg body wt), read-out: T1/2 (converted)), 2.33 h; in data set [5] (plasma, human, single oral dose 1000 mg (12.3 mg/kg body wt), read-out: T1/2 (converted)), 2.38 h; in data set [5] (plasma, human, single oral dose 50 to 1000 mg sodium salt, read-out: mean elimination half-life (T1/2) (converted)) it was 1.77 h. Further, in [5] (plasma, human, all dosage groups, single oral dose 50 to 1000 mg sodium salt, read-out: mean time of maximal concentration (Tmax)), the Tmax was 1.74 h.
As for `C[C@@H](C(=O)O)c1ccc(-c2ccccc2)c(F)c1` [R-flurbiprofen], the “fraction converted in vivo to S-flurbiprofen” value in data set [6] is listed as 22-30%.
